Test results reported in patent publication US20230012368A1 (Hoffmann-La Roche Inc., priority 2018, published 2023).
Structures can show the parent of a compound that is named as a salt. Where two headings read alike, the source gives them in different places.

System: Acinetobacter baumannii ATCC 17978
Experiment: Antimicrobial susceptibility testing: 90% growth inhibitory concentration (IC90) determination
Format: cell-based
Conditions: 90% growth inhibitory concentration, Acinetobacter baumannii ATCC17978, Iso-Sensitest broth, OD 600 nm over 16h, read-out: ATCC17978 IC90
Protocol: Antimicrobial Susceptibility Testing:
90% Growth Inhibitory Concentration (IC90) Determination
The in vitro antimicrobial activity of the compounds was determined according to the following procedure:
The assay used a 10-points Iso-Sensitest broth medium to measure quantitatively the in vitro activity of the compounds against Acinetobacter baumannii ATCC 17978 and Acinetobacter baumannii ATCC 17961.
Stock compounds in DMSO were serially twofold diluted (e.g. range from 50 to 0.097 μM final concentration) in 384 wells microtiter plates and inoculated with 49 μl the bacterial suspension in Iso-Sensitest medium to have a final cell concentration of ˜5×10^(5) CFU/ml in a final volume/well of 50 ul/well. Microtiter plates were incubated at 35±2° C.
Bacterial cell growth was determined with the measurement of optical density at λ=600 nm each 20 minutes over a time course of 16h. Growth inhibition was calculated during the logarithmic growth of the bacterial cells with determination of the concentration inhibiting 50% (IC50) and 90% (IC90) of the growth.
Table 1 provides the 90% growth inhibitory concentrations (IC90) in micromoles per liter of the compounds of present invention obtained against the strain Acinetobacter baumannii ATCC17978 and Acinetobacter baumannii ATCC17961.

[1] = Acinetobacter baumannii, ATCC17978, 16 h

| IC90 [1] [nM] | SMILES | IC90 [nM] |
| --- | --- | --- |
| 6200 | COc1ccc(-c2cnc3c(Nc4ccc(C(=O)N(CCN5CCNCC5)CC(F)(F)F)c(C)c4)nccn23)cc1F [Example 172, 4-[[3-(3-fluoro-4-methoxyphenyl)imidazo[1,2-a]pyrazin-8-yl]amino]-2-methyl-N-(2-piperazin-1-ylethyl)-N-(2,2,2-trifluoroethyl)benzamide; hy-drochloride] |  |
| 3400 | Cc1cc(Nc2nccn3c(-c4ccc(OC(F)F)cc4)cnc23)ccc1C(=O)N(C)CC(=O)N1CCOCC1 [Example 279, 4-[[3-[4-(difluoromethoxy)phenyl]im-idazo[1,2-a]pyrazin-8-yl]amino]-N,2-dimethyl-N-(2-morpholin-4-yl-2-oxoethyl)benzamide] |  |
| 260 | Cc1cc(Nc2nccn3c(-c4ccc(Cl)cc4)cnc23)ccc1C(=O)NCCC1CCN(C)CC1 [Example 186, 4-[[3-(4-chlorophenyl)imidazo[1,2-a]pyrazin-8-yl]amino]-2-methyl-N-[2-(1-methylpiperidin-4-yl)ethyl]benzamide] |  |
| 1100 | CCCc1cc(Nc2nccn3c(-c4ccc(OC(F)F)cc4)cnc23)ccc1C(=O)NC [Example 152, 4-((3-(4-(Difluoromethoxy)phenyl)imidazo[1,2-a]pyrazin-8-yl)amino)-N-methyl-2-propylbenzamide] |  |
| 650 | Cc1cc(Nc2nccn3c(-c4ccc(OC(F)F)cc4)cnc23)ccc1C(=O)N(C)CCC1CCN(CCC(=O)O)CC1 [Example 150, 3-(4-(2-(4-((3-(4-(difluoromethoxy)phenyl)imidazo[1,2-a]pyrazin-8-yl)amino)-N,2-dimethylbenzamido)ethyl)piperidin-1-yl)propanoic acid] |  |
| 5400 | COc1ccc(-c2cnc3c(Nc4ccc(C(=O)N(C)CCN5CCCCC5)c(C)c4)nccn23)cc1F [Example 267, 4-[[3-(3-fluoro-4-methoxyphenyl)imidazo[1,2-a]pyrazin-8-yl]amino]-N,2-dimethyl-N-(2-piperidin-1-ylethyl)benzamide] |  |
| 400 | Cc1cc(Nc2nccn3c(-c4ccc(OC(F)F)cc4)cnc23)ccc1C(=O)NCCCCN1CCOCC1 [Example 197, 4-[[3-[4-(difluoromethoxy)phenyl]im-idazo[1,2-a]pyrazin-8-yl]amino]-2-methyl-N-(4-morpholin-4-ylbutyl)benzamide] |  |

The next lines start with the molecule.

| SMILES | IC90 [1] [nM] | IC90 [nM] |
| --- | --- | --- |
| CCc1cc(Nc2nccn3c(-c4ccc(OC)c(F)c4F)cnc23)ccc1C(=O)N[C@@H](C)CN [Example 102, (S)-N-(1-aminopropan-2-yl)-4-((3-(2,3-difluoro-4-methoxyphenyl)imidazo [1,2-a]pyrazin-8-yl)amino)-2-ethylbenzamide dihydrochloride] | 320 |  |
| CCc1cc(Nc2nccn3c(-c4ccc(OC)c(F)c4F)cnc23)ccc1C(=O)N[C@H](C)CCNC(=O)[C@@H](N)CCCNC(=N)N [Example 375, N-[(2R)-4-[[(2S)-2-amino-5-carbamimidamidopentanoyl]amino]butan-2-yl]-4-[[3-(2,3-difluoro-4-methoxyphenyl)imidazo[1,2-a]pyrazin-8-yl]amino]-2-ethylbenzamide] | 190 |  |
| COc1ccc(-c2cnc3c(Nc4ccc(C(=O)N(C)C)c(C)c4)nccn23)c(F)c1F [Example 1, 4-((3-(2,3-difluoro-4-methoxyphenyl)imidazo[1,2-a]pyrazin-8-yl)amino)-N,N,2-trimethylbenzamide] | 120 |  |
| COc1ccc(-c2cnc3c(Nc4ccc(C(=O)NCC5CCN(C(=N)N)CC5)c(Cl)c4)nccn23)cc1F [Example 296, N-[(1-carbamimidoylpiperidin-4-yl)methyl]-2-chloro-4-[[3-(3-fluoro-4-methoxyphenyl)imidazo[1,2-a]pyrazin-8-yl]amino]benzamide] | 150 |  |
| CCc1cc(Nc2nccn3c(-c4ccc(OC)c(F)c4F)cnc23)ccc1C(=O)NCCCCCN [Example 418, N-(5-aminopentyl)-4-((3-(2,3-difluoro-4-methoxyphenyl)imidazo[1,2-a]pyrazin-8-yl)amino)-2-ethylbenzamide hydrochloride] | 33 |  |
| CCc1cc(Nc2nccn3c(-c4ccc(OC)c(F)c4F)cnc23)ccc1C(=O)NCCCNC(=O)[C@H](CCCNC(=N)N)NC(=O)CC[C@H](N)C(=O)O [Example 407, N5-((S)-1-((3-(4-((3-(2,3-difluoro-4-methoxyphenyl)imidazo[1,2-a]pyrazin-8-yl)amino)-2-ethylbenzamido)propyl)amino)-5-guanidino-1-oxopentan-2-yl)-L-glutamine trihydrochloride] | 940 |  |
| COc1ccc(-c2cnc3c(Nc4ccc5c(c4)CCCNC5=O)nccn23)cc1F [Example 390, 7-[[3-(3-fluoro-4-methoxy-phenyl)imidazo[1,2-a]pyrazin-8-yl]amino]-2,3,4,5-tetrahydro-2-benzazepin-1-one hydrochloride] | 220 |  |
| CCc1cc(Nc2nccn3c(-c4ccc(Cl)c(F)c4F)cnc23)ccc1C(=O)NCCCN [Example 229, N-(3-aminopropyl)-4-[[3-(4-chloro-2,3-difluorophenyl)imidazo[1,2-a]pyrazin-8-yl]amino]-2-ethylbenzamide;hydrochloride] | 1200 |  |
| CCc1cc(Nc2nccn3c(-c4ccc(OC)cc4F)cnc23)ccc1C(=O)NCCCN [Example 280, N-(3-aminopropyl)-2-ethyl-4-[[3-(2-fluoro-4-methoxyphenyl)imidazo[1,2-a]pyrazin-8-yl]amino]benzamide;hydrochlo-ride] | 880 |  |
| CCc1cc(Nc2nccn3c(-c4ccc(Oc5ccc(OCCCN)cn5)c(F)c4F)cnc23)ccc1C(=O)NC [Example 511, 4-[[3-[4-[[5-(3-aminopropoxy)-2-pyridyl]oxy]-2,3-difluoro-phenyl]imidazo[1,2-a]pyrazin-8-yl]amino]-2-ethyl-N-methyl-benzamide; formic acid] |  | 480 |
| CCc1cc(Nc2nccn3c(-c4ccc(OC)c(F)c4F)cnc23)ccc1C(=O)NCC(=O)N1CCN[C@H](CO)C1 [Example 464, 4-[[3-(2,3-difluoro-4-methoxy-phenyl)imidazo[1,2-a]pyrazin-8-yl]amino]-2-ethyl-N-[2-[(3S)-3-(hydroxymethyl)piperazin-1-yl]-2-oxo-ethyl]benzamide] | 240 |  |
| CCc1cc(Nc2nccn3c(-c4ccc(OC)c(F)c4F)cnc23)ccc1C(=O)NCCCC[C@H](N)C(=O)O [Example 344, (2S)-2-amino-6-[[4-[[3-(2,3-difluoro-4-methoxyphenyl)imidazo[1,2-a]pyrazin-8-yl]amino]-2-ethylbenzoyl]amino]hexanoic acid;2,2,2-trifluoroacetic acid] | 800 |  |
| COc1ccc(-c2cnc3c(Nc4ccc(C(=O)NCCNC(=O)CC[C@@H]5NC5=O)c(C)c4)nccn23)c(F)c1F [Example 337, 4-[[3-(2,3-difluoro-4-methoxyphenyl)imidazo[1,2-a]pyrazin-8-yl]amino]-2-methyl-N-[2-[3-[(2S)-3-oxoaziridin-2-yl]propanoylamino]ethyl]benz-amide] | 520 |  |
| CCc1cc(Nc2nccn3c(-c4ccc(OC)c(F)c4F)cnc23)ccc1C(=O)NCCNC(=O)[C@@H](N)CCCNC(=N)N [Example 121, N-[2-[[(2S)-2-amino-5-guanidino-pentanoyl]amino]ethyl]-4-[[3-(2,3-difluoro-4-methoxy-phenyl)imidazo[1,2-a]pyrazin-8-yl]amino]-2-ethyl-benzamide trifluoroacetate] | 280 |  |
| COc1ccc(-c2cnc3c(Nc4ccc(C(=O)N(C)CC(=O)N5CCNCC5)c(C)c4)nccn23)cc1F [Example 5, hydrochloride] |  | 650 |
